Each structure is given as a SMILES string.

One test relates to Alpha-receptor. The test is described as follows: Alpha-receptor blocking action (thoracic aorta, noradrenaline). The note with it: rabbit thoracic aorta helical strip, Krebs-Henseleit, 37° C., compound applied 30 min prior. Details: species or system male rabbit. The procedure:
3. Alpha-receptor blocking action
The thoracic aorta was excised from male rabbit and helically cut. The helical strip was mounted in a tissue bath containing Krebs-Henseleit solution maintained at 37° C. A resting tension of 2.0 g was applied to the tissue. The change in tension, which was induced by cumulative application of noradrenaline, was isometrically measured by the FD-pickup. The tissue bath solution was bubbled with a mixture of 95% O2 -5% CO2. The test compounds were applied 30 min prior to cumulative application of noradrenaline. The degree of alpha-blocking action was expressed as the pA2 value.
As to `COc1ccc(C(C#N)(CCCNCCOc2ccccc2OC)C(C)C)cc1OC.O=C(O)/C=C\C(=O)O` (stereo not drawn) [Example 4, Alpha-isopropyl-alpha-[3-[N-[2-(2-methoxyphenoxy)ethyl]amino]-propyl]-3,4-dimethoxyphenylacetonitrile Maleate], the “Alpha-blocking action, pA2 value” was found to be 8.25.

On to `COc1ccc(CCN(C)CCCC(C#N)(c2ccc(OC)c(OC)c2)C(C)C)cc1OC` (stereo not drawn) [Verapamil, reference compound], for which the “Alpha-blocking action, pA2 value” is given as 6.41.

In the case of `COc1ccc(CCN(C)CCCC(C#N)(c2cc(OC)c(OC)c(OC)c2)C(C)C)cc1OC` (stereo not drawn) [Gallopamil, reference compound], the “Alpha-blocking action, pA2 value” turned out to be 6.11. Take `COc1ccc(C(C#N)(CCCNCCOc2ccccc2OC)C(C)C)cc1` (stereo not drawn) [Example 21]: the “Alpha-blocking action, pA2 value” was determined as 8.02.

Turning to `COc1ccccc1OCCNCCCC(C#N)(CC(C)C)c1cc(OC)c(OC)c(OC)c1` (stereo not drawn) [Example 93, Alpha-isobutyl-alpha-[3-[N-[2-(2-methoxyphenoxy)ethyl]amino]propyl]-3,4,5-trimethoxyphenylacetonitrile], the “Alpha-blocking action, pA2 value” is recorded as 8.67. Same read-out and setting: for `COc1ccccc1OCCNCCCC(C#N)(c1cc(OC)c(OC)c(OC)c1)C(C)C` (stereo not drawn) [Example 84, Alpha-isopropyl-alpha-[3-[N-[2-(2-methoxyphenoxy)ethyl]amino]propyl]-3,4,5-trimethoxyphenylacetonitrile] the value was 8.42; for `CCCC(C#N)(CCCNCCOc1ccccc1OC)c1cc(OC)c(OC)c(OC)c1` (stereo not drawn) [Example 91], 8.46. Take `COc1ccccc1OCCNCCCC(C)(C#N)c1cc(OC)c(OC)c(OC)c1` (stereo not drawn) [Example 88]: the “Alpha-blocking action, pA2 value” came to 8.40. In the case of `CCC(C#N)(CCCNCCOc1ccccc1OC)c1cc(OC)c(OC)c(OC)c1` (stereo not drawn) [Example 90, Alpha-ethyl-alpha-[3-[N-[2-(2-methoxyphenoxy)ethyl]amino]propyl]-3,4,5-trimethoxyphenylacetonitrile], the “Alpha-blocking action, pA2 value” worked out at 8.79. On to `CCCCC(C#N)(CCCNCCOc1ccccc1OC)c1cc(OC)c(OC)c(OC)c1` (stereo not drawn) [Example 92], for which the “Alpha-blocking action, pA2 value” stood at 8.57.

For a further test, the system named is aconitine-induced arrhythmias. Nature of the test: Anti-arrhythmic action (aconitine-induced arrhythmias in mice). The test is classed as in vivo, male ddY mice. The note with it: 100 mg/kg orally 60 min prior to aconitine infusion, percent increase of aconitine needed to induce arrhythmias. How it is done:
2. Anti-arrhythmic action (aconitine-induced arrhythmias in mice)
Male ddY mice weighing about 30 g were anesthetized with pentobarbital sodium given intraperitoneally. Aconitine (1.32 μg/min) was continuously infused into a tail vein 15 min posterior to pentobarbital sodium administration. […] The amount of aconitine needed to induce arrhythmias was calculated from the time taken to the onset of the first premature ventricular systoles. The test compounds (100 mg/kg) were orally given 60 min prior to aconitine infusion. Their relative potencies to quinidine were compared by the percent increase of aconitine needed to induce arrhythmias.
For the molecule `COc1cccc(C(C#N)(CCCNCCOc2ccccc2OC)C(C)C)c1` (stereo not drawn) [Example 19], the “Anti-arrhythmic action, relative potency (quinidine = 1)” value turned out to be 2.28. As to `COc1cc(C(C#N)(CCCNCCOc2ccccc2)C(C)C)cc(OC)c1OC.Cl` (stereo not drawn) [Example 3, Alpha-isopropyl-alpha-[3-(2-phenoxyethylamino)propyl]-3,4,5-trimethoxyphenylacetonitrile Hydrochloride], the “Anti-arrhythmic action, relative potency (quinidine = 1)” value is 2.01. `COc1ccccc1OCCCNCCC(C#N)(c1cc(OC)c(OC)c(OC)c1)C(C)C.Cl` (stereo not drawn) [Example 6, Alpha-isopropyl-alpha-[2-[N-[3-(2-methoxyphenoxy)propyl]-amino]ethyl]-3,4,5-trimethoxyphenylacetonitrile Hydrochloride]: the “Anti-arrhythmic action, relative potency (quinidine = 1)” value came to 2.02. For the molecule `COc1ccc(CCN(C)CCCC(C#N)(c2cc(OC)c(OC)c(OC)c2)C(C)C)cc1OC` (stereo not drawn) [Gallopamil, reference compound], the “Anti-arrhythmic action, relative potency (quinidine = 1)” value came to 0.30.

Regarding `COc1ccccc1OCCN(C)CCCC(C#N)(c1cc(OC)c(OC)c(OC)c1)C(C)C` (stereo not drawn) [Example 85], the “Anti-arrhythmic action, relative potency (quinidine = 1)” value is 3.72.

As for `COc1ccccc1OCCNCCCC(C#N)(c1cc(OC)c(OC)c(OC)c1)C(C)C` (stereo not drawn) [Example 84, Alpha-isopropyl-alpha-[3-[N-[2-(2-methoxyphenoxy)ethyl]amino]propyl]-3,4,5-trimethoxyphenylacetonitrile], the “Anti-arrhythmic action, relative potency (quinidine = 1)” value was found to be 2.52. Turning to `COc1ccc(C(C#N)(CCCNCCCOc2ccccc2OC)C(C)C)cc1OC` (stereo not drawn) [Example 57], the “Anti-arrhythmic action, relative potency (quinidine = 1)” value is 1.52. On to `COc1cccc(C(C#N)(CCCN(C)CCOc2ccccc2OC)C(C)C)c1` (stereo not drawn) [Example 20], for which the “Anti-arrhythmic action, relative potency (quinidine = 1)” value came out at 1.20. `COc1ccc(C(C#N)(CCCNCCCOc2ccccc2OC)C(C)C)cc1` (stereo not drawn) [Example 27]: the “Anti-arrhythmic action, relative potency (quinidine = 1)” value turned out to be 1.43. Same read-out and setting: the same measure for `COc1cccc(C(C#N)(CCCNCCCOc2ccccc2OC)C(C)C)c1` (stereo not drawn) [Example 25]: 2.34.

As to `COc1ccccc1OCCNCCCC(C)(C#N)c1cc(OC)c(OC)c(OC)c1` (stereo not drawn) [Example 88], the “Anti-arrhythmic action, relative potency (quinidine = 1)” value stood at 1.34.

In the case of `COc1cc(C(C#N)(CCCNCCCOc2ccc(N)cc2)C(C)C)cc(OC)c1OC` (stereo not drawn) [Example 126], the “Anti-arrhythmic action, relative potency (quinidine = 1)” value is reported as 1.03. Consider `COc1cc(C(C#N)(CCCNCCCOc2ccccc2N)C(C)C)cc(OC)c1OC` (stereo not drawn) [Example 11, Alpha-isopropyl-alpha-[3-[N-[3-(2-aminophenoxy)propyl]amino]-propyl]-3,4,5-trimethoxyphenylacetonitrile], for which the “Anti-arrhythmic action, relative potency (quinidine = 1)” value is on record as 1.51. On to `COc1cccc(C(C#N)(CCCN(C)CCCOc2ccccc2OC)C(C)C)c1` (stereo not drawn) [Example 26], for which the “Anti-arrhythmic action, relative potency (quinidine = 1)” value is 1.60. In the case of `CCCc1ccccc1OCCCNCCCC(C#N)(c1cc(OC)c(OC)c(OC)c1)C(C)C` (stereo not drawn) [Example 122], the “Anti-arrhythmic action, relative potency (quinidine = 1)” value amounted to 1.21. On the same count and under the same terms, for `COc1ccc(C(C#N)(CCCN(C)CCCOc2ccccc2OC)C(C)C)cc1OC` (stereo not drawn) [Example 58] the value was 1.64. Turning to `COc1cc(C(C#N)(CCCNCCCOc2cccc(N)c2)C(C)C)cc(OC)c1OC` (stereo not drawn) [Example 128], the “Anti-arrhythmic action, relative potency (quinidine = 1)” value was 2.01. Same read-out and setting: the same measure for `COc1ccccc1OCCCNCCCC(C#N)(c1cc(OC)c(OC)c(OC)c1)C(C)C` (stereo not drawn) [Example 118, Alpha-isopropyl-alpha-[3-[N-[3-(2-methoxyphenoxy)propyl]amino]propyl]-3,4,5-trimethoxyphenylacetonitrile]: 2.65; for `COc1ccccc1OCCCN(C)CCCC(C#N)(c1cc(OC)c(OC)c(OC)c1)C(C)C` (stereo not drawn) [Example 119]: 2.24. For `CC(C)N(CCC(C(N)=O)(c1ccccc1)c1ccccn1)C(C)C` (stereo not drawn) [disopyramide, reference compound], the “Anti-arrhythmic action, relative potency (quinidine = 1)” value is on record as 0.97.

For the origin of these results see US4612329A, “Pharmaceutical alpha-aminoalkyl-alpha-alkylphenylacetonitriles” (Hokuriku Pharmaceutical Co., Ltd., priority 1984, dated 1986).
